Results: patent US11828750B2, “Material for screening for compound acting on ION channel and use thereof” (PUBLIC UNIVERSITY CORPORATION NAGOYA CITY UNIVERSITY, priority 2016, dated 2023)

Key:
hSK2 = molecular target: T1, hSK2 (Homo sapiens, UniProt Q9H2S1); assay: Cell death assay in SK2 test cells (Kir 2.1+IFM/QQQ+SK2 cells); type: cell-based
T1 construct: expressed in transfected cells; host or cells: HEK293 Kir 2.1 + mutated Nav cells, transient expression via baculovirus vector
Text: (§1) hSK2 and hSK4, which are each one type of human-derived Ca ion-activated ion channel, were respectively subcloned in a baculovirus vector, which is a viral vector, and were inserted into the Kir 2.1 #mutated Nav cells prepared in Second Embodiment to prepare hSK2 transiently expressing Kir 2.1+IFM/QQQ+SK2 cells (referred to herebelow as SK2 test cells) and hSK4 transiently expressing Kir 2.1+IFM/QQQ+SK4 cells (referred to herebelow as SK4 test cells). Sf-900 III SFM (Thermo Fisher Scientific) was used for the culture medium for baculovirus vector production, and Dulbecco's Modified Eagle Medium (D-MEM) culture medium supplemented with 10% fetal bovine serum (FBS) was used as the culture medium for the test cells.

hTREK-1 = molecular target: T2, hTREK-1 (Homo sapiens, UniProt O95069); assay: Cell death assay (MTT method) in TREK-1 test cells (hTREK-1#Kir 2.1#mutated Nav HEK293 cells); type: cell-based; conditions: 37° C.
T2 construct: expressed in transfected cells; host or cells: HEK293 cells stably expressing Kir 2.1 and Nav 1.5 IFM/QQQ; hTREK-1 in pcDNA3.1(+)
T2 sequence (O95069 1-422 isoform O95069-3): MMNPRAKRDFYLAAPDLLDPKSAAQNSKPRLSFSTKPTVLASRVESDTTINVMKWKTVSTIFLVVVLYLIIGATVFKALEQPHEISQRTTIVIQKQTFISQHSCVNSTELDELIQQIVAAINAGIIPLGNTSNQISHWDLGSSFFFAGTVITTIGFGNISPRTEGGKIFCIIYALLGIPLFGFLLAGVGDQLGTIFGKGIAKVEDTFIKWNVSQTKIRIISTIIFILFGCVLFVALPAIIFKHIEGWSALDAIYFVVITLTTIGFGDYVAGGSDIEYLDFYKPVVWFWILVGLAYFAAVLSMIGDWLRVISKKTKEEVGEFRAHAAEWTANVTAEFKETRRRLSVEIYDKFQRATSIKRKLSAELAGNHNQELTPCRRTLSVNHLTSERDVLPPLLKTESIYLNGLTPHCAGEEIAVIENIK
Method: (Cell Culture and Gene Insertion) Human-derived embryonic kidney cells (HEK293 cells) were purchased from the Health Sciences Research Resource Bank (HSRRB). 10% fetal bovine serum (FBS, Gibco Corp.) was added thereto followed by culturing at 37° C. in 5% CO2 in Dulbecco's Modified Eagle Medium (D-MEM, Wako Pure Chemical Industries, Ltd.) containing 100 U/ml penicillin (Wako Pure Chemical Industries, Ltd.) and 100 μg/ml streptomycin (Meiji Seika Kaisha, Ltd.). pcDNA3.1/Kir 2.1, obtained by subcloning human-derived Kir 2.1 (NM #000891) in pcDNA3.1(+) (Invitrogen Corp.), was inserted using Lipofectamine 2000 (Invitrogen Corp.) followed by culturing in medium obtained by adding 0.2 mg/ml Zeocin (Invitrogen Corp.) to the above-mentioned D-MEM medium and then cloning Zeocin resistant cells to prepare Kir 2.1 constantly expressing cells (HEK#Kir). In addition, the deactivation mutant Nav 1.5 IFM/QQQ was inserted into the Kir 2.1 constantly expressing cells using the same method (HEK#Kir#mutated Nav).
Proceeding as above, hTREK-1#Kir 2.1 #mutated Nay cells (referred to herebelow as TREK-1 test cells) were prepared by subcloning hTREK-1 (GenBank Accession Number: NM #001017424), a type of human-derived K2P channel, in pcDNA3.1(+) and inserting it in the previously prepared Kir 2.1 #mutated Nav cells. […]

hTASK-1 = assay: Cell death assay in TASK-1 test cells (hTASK-1 transiently expressing Kir 2.1#mutated Nav cells); type: cell-based, human
Method: With the TREK-1 test cells, the culture medium was replaced with measurement buffer (137 mM NaCl, 5.9 mM KCl, 2.2 mM CaCl2, 1.2 mM MgCl2, 14 mM glucose, 10 mM HEPES (pH 7.4 with NaOH), this also applies in the following) and BaCl2 was added to provide 200 μM Ba ion, a Kir 2.1 inhibitor. This was followed by incubation for approximately 12 hours under conditions of 37° C., atmospheric pressure, and 5% CO2 and monitoring of cell death. […] The measurement of cell death was carried out using the MTT method with reference to a paper by the present inventors (Yamazaki, D., et al., Am J Physiol Cell Physiol 300, C75-86, 2011).
hTASK-1 (the Δi20 mutant was used due to poor transfer to the cell membrane by the wild type, resulting in the problems of a small current and measurement difficulties. This mutant is reported to readily transfer to the membrane. Renigunta et al., Traffic 7:168-181, 2006) and hTASK-3 (GenBank Accession Number: NM #001282534), which are types of human-derived K2P channels, were subcloned in a baculovirus vector, a viral vector, and were inserted into the Kir 2.1 #mutated Nav cells prepared in Second Embodiment to prepare hTASK-1 transiently expressing TASK-1#Kir 2.1 #mutated Nav cells and hTASK-3 transiently expressing hTASK-3#Kir 2.1 #mutated Nav cells (referred to herebelow as TASK-1 test cells and TASK-3 test cells), respectively, which transiently expressed hTASK-1 and hTASK-3. Sf-900 III SFM (Thermo Fisher Scientific) was used for the culture medium for baculovirus vector production, and Dulbecco's Modified Eagle Medium (D-MEM) culture medium supplemented with 10% fetal bovine serum (FBS) was used as the culture medium for the test cells.
For TASK-3 this was the same as the literature value of 35 nM (Coburn et al., Chem Med Chem., 7(1), 123-33, 2012).

hTASK-3 = molecular target: T3, hTASK-3 (Homo sapiens, UniProt Q9NPC2); assay: Cell death assay in TASK-3 test cells (hTASK-3 transiently expressing Kir 2.1#mutated Nav cells); type: cell-based; conditions: 200 μM Ba ion
T3 construct: expressed in transfected cells; host or cells: HEK293 Kir 2.1 + mutated Nav cells, transient expression via baculovirus vector
T3 sequence (Q9NPC2 whole entry): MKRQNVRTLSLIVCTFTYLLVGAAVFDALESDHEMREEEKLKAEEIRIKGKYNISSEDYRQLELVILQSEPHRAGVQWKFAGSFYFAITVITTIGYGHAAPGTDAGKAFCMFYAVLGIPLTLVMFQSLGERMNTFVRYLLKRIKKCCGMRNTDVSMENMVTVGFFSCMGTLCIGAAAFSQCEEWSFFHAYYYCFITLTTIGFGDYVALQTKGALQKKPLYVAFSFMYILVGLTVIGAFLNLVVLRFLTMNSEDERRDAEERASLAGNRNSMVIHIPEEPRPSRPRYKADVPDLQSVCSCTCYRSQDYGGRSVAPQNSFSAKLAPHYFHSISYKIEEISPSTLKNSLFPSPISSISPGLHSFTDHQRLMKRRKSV
Text: Sf-900 III SFM (Thermo Fisher Scientific) was used for the culture medium for baculovirus vector production, and Dulbecco's Modified Eagle Medium (D-MEM) culture medium supplemented with 10% fetal bovine serum (FBS) was used as the culture medium for the test cells.

hSK4 = molecular target: T4, hSK4 (Homo sapiens, UniProt O15554); assay: Cell death assay in SK4 test cells (Kir 2.1+IFM/QQQ+SK4 cells); type: cell-based; conditions: in the presence of 100 nM Ca ion
T4 construct: expressed in transfected cells; host or cells: HEK293 Kir 2.1 + mutated Nav cells, transient expression via baculovirus vector
Text: as §1

TASK-1 = TASK-1 (Homo sapiens, UniProt O14649); conditions: Zou et al. 2010; read-out: reported IC50 for TASK-1; cited from earlier work
TASK-1, sequence (O14649 whole entry, species assumed): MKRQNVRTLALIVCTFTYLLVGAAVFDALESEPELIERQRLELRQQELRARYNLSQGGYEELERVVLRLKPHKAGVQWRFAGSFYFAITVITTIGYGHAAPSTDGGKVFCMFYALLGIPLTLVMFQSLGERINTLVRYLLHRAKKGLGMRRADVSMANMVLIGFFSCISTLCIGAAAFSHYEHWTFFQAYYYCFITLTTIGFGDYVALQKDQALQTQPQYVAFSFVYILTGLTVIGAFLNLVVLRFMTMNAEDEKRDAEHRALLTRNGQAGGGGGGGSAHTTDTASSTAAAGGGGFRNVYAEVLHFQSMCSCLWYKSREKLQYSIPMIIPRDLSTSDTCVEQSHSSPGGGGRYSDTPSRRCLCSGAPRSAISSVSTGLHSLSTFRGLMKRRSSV

For `c1cc2cc(c1)C[n+]1ccc(c3ccccc31)NCc1ccc(cc1)CNc1cc[n+](c3ccccc13)C2` [UCL1684], which “effect of inhibitor on NS309-mediated inhibition of cell death” value (hSK2; added together with NS309, 100 nM Ca ion) is on record?
The value was “the NS309-mediated inhibition of cell death was extinguished”.

For `Nc1ncnc2c1nc(Br)n2[C@@H]1O[C@@H]2COP(=O)(O)O[C@H]2[C@H]1O` [8-Br-cAMP], which “cell death on supply of TREK-1 inhibitor” value (hTREK-1; in the presence of 200 μM Ba ion, approximately 12 hours, MTT method) is on record?
The value was “Cell death was observed”.

Which results are given for `[Ba+2].[Cl-].[Cl-]` [Ba ion, BaCl2]?
cell death with Ba ion alone (hTASK-1; 200 μM Ba ion): cell death was not produced; cell death with Ba ion alone (hTREK-1; 200 μM Ba ion, TREK-1 test cells): cell death was not produced; cell death with Ba ion alone (hTASK-3): cell death was not produced

With `O=C1Nc2c(ccc(Cl)c2Cl)C1=NO` [NS309, 3-oxime-6,7-dichloro-1H-indole-2,3-dione] as the compound, how does the “cell death of SK2 test cells on addition of activator” value (hSK2; in the presence of 100 nM Ca ion) read?
Its value is “cell death of the SK2 test cells was inhibited”.

With `CCn1c(=O)[nH]c2cc(Cl)c(Cl)cc21` [DCEBIO, 5,6-dichloro-1-ethyl-1,3-dihydro-2H-benzimidazole-2-one] as the compound, how does the “cell death of SK4 test cells on addition of activator” value (hSK4) read?
Its value is “cell death of the SK4 test cells was inhibited”.

For ML365, which “induction of cell death by inhibitor” value (hTASK-1; in the presence of 200 μM Ba ion) is on record?
Its value is “cell death was observed in a concentration-dependent regime”.

What about the “concentration above which a sharp increase in the induction of cell death occurred” value (hTASK-1; in the presence of Ba ion) of the same compound?
The value was greater than 11.5 nM.

What about the IC50 (TASK-1) of the same compound?
The IC50 was 12 nM.
